Earlier results as cited in article PMC11101992 (Clinical and Translational Science, 2024).

## CN1CCC[C@]1(C)/C=C/S(=O)(=O)NC(=O)Nc1c2c(cc3c1CCC3)CCC2 [ZYIL1]
IL‐1β release; healthy subjects
  IL‐1β release inhibition: > 90%
Early clinical trials
  drug‐related skin reactions (in words): did not yet report any drug‐related skin reactions

## CS(=O)(=O)CCC#N [dapansutrile]
IL‐1β release; healthy subjects and patients with gout flare
  IL‐1β release reduction (in words): only partially reduced

## CN[C@@H]1COc2c(S(=O)(=O)NC(=O)Nc3c4c(cc5c3CCC5)CCC4)cnn2C1 [GDC‐2394]
900 mg
  healthy subjects with rash: 22%
